Assay: Disk Retention Assay (DRA) of CPC bioavailability in mouthrinse formulations
Format: in vitro ADME
Conditions: mouthrinse formulation
Excerpt: In evaluating bioavailability and biological activity of quaternary ammonium antimicrobials in mouthwash formulations, an in vitro Disk Retention Assay (DRA) can be used to estimate drug bioavailability as well as an ex vivo Plaque Glycolysis and Regrowth Model (PGRM) to assess biological activity (S. J. Hunter-Rinderle, et al., “Evaluation of Cetylpyridinium Chloride-Containing Mouthwashes Using In Vitro Disk Retention and Ex Vivo Plaque Glycolysis Methods,” J. Clin. Den., 1997, 8:107-113). These assays are recommended for use in the proposed OTC monograph (Federal Register Vol. 68, No. 103 Part 356, “Oral Health Care Drug Products For Over-The-Counter Human Use; Antigingivitis/Antiplaque Drug Products; Establishment of a Monograph: Proposed Rules”).
This method is designed as a performance assay to analyze mouthrinse formulations containing from about 0.03% to about 0.1% CPC to quantitatively determine the “free” (“unbound”) or “bioavailable” level of CPC needed for clinical efficacy. The DRA assay measures the amount of CPC “binding” to standardized cellulose filter disks during filtration of an undiluted mouthrinse sample. The “bioavailable” CPC binds to the hydroxyl groups on the cellulose fiber during filtration while CPC, which has been rendered “non-bioavailable” (or “bound”)” through interactions with mouthrinse components, simply passes through the filter paper, i.e., the positive charge on the compound is no longer available for binding to the negatively charged cellulose disks. In this way, the DRA test provides an estimate of the amount of CPC available for binding to bacteria and mucosal surfaces during use of the mouthrinse. DRA measurements of CPC availability have been positively correlated to the results of in vitro microbiological assays and in vivo germ kill tests. Historically, cellulose fibers have been used in other applications to similarly monitor biological activity of drug actives (“Dairy Products” in Official Methods of Analysis of the Association of […] Analytical Chemists. 13th ed., 1980, Chapter 16:256).
“Bioavailable” CPC is the amount of CPC bound to or adsorbed to cellulose disks. This is determined by measuring the differences in CPC concentration in the mouthrinse before and after exposure to standardized cellulose disks. The method has been validated and shown to perform with acceptable accuracy, precision, and selectivity. A more detailed description of the test is provided below.
For example, a formulation comprising 0.05% CPC at 72% bioavailability would provide 360 ppm CPC. […] Determination of CPC bioavailability in a finished product is important to product performance as it readily defines the amount (concentration) of active available for deposition at the site of action. Because the positively charged (cationic) hydrophilic region is critical to antimicrobial activity, any formulation component that diminishes the activity of this cationic group or that competes with the group may inactivate the product.
Desirably, a formulation containing 0.05% CPC would have at least about 65% bioavailability to deliver at least about 324 ppm bioavailable CPC. A formulation containing a lower level of CPC such as 0.04% would need to have at least about 81% bioavailability to deliver the minimum required level of bioavailable CPC for efficacy.

Question: Which results are given for `CCCCCCCCCCCCCCCC[n+]1ccccc1` [CPC, cetylpyridinium chloride]?
Answer: % bioavailable CPC (0.0 % Poloxamer): 94.24%; % bioavailable CPC (0.05 % Poloxamer): 84.42%; % bioavailable CPC (0.1 % Poloxamer): 61.14%; % bioavailable CPC (0.15 % Poloxamer): 57.49%; % bioavailable CPC (0.2 % Poloxamer): 52.96%; % bioavailable CPC (0.25 % Poloxamer): 53.14%; % bioavailable CPC (0.5 % Poloxamer): 42.63%; % bioavailable CPC (0.75 % Poloxamer): 38.4%; % bioavailable CPC (1.00 % Poloxamer): 35.09%; bioavailability of CPC (level of 0.1% surfactant (Poloxamer) or higher): unacceptable bioavailability

Reference: patent US9241885B2, “Oral care compositions comprising increased bioavailable levels of quaternary ammonium antimicrobials” (THE PROCTER & GAMBLE COMPANY, priority 2004, dated 2016)
